Measurements published in article PMC10794144, “A novel antibiotic class targeting the lipopolysaccharide transporter” (Nature, 2024).
Values after ≈ are worked out from the molar mass of the structure shown. Like-named read-outs stand apart in the source and are kept apart here.

Tested on: A. baumannii
Experiment: microbe, parasite or virus in culture
Conditions: for MIC90 / MIC: Acinetobacter baumannii
Outline: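 Broth microdilution per CLSI M07/M100, with inocula diluted from a 0.5 McFarland suspension in CAMHB, or LB for A. baylyi. MIC was read as the lowest concentration inhibiting growth by eye or beyond which OD600 stopped decreasing.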

C[C@@H](O)[C@H]1C(=O)N2C(C(=O)O)=C(S[C@@H]3CN[C@H](C(=O)N(C)C)C3)[C@H](C)[C@H]12 [meropenem, reference compound]
MIC range (10 MDR isolates, CAMHB, MCPs read at 80% growth inhibition): 1 to 64 µg/mL | MIC90: 64 µg/mL (≈ 167 µM) | MIC90 (129 clinical isolates, CAMHB): > 16 µg/mL | MIC (ACC00445, CAMHB, MCPs read at 80% inhibition): > 16 µg/mL | MIC (ACC00535, CAMHB, MCPs read at 80% inhibition): > 16 µg/mL | MIC (ACC01073, CAMHB, MCPs read at 80% inhibition): 16 µg/mL (≈ 41.7 µM) | MIC (ACC01077, CAMHB, MCPs read at 80% inhibition): > 16 µg/mL | MIC (ACC01085 / AR0307, CAMHB, MCPs read at 80% inhibition): 8 µg/mL (≈ 20.9 µM) | MIC (ATCC17978, ATCC 17978, CAMHB, MCPs read at 80% inhibition): 0.25 µg/mL (≈ 0.652 µM) | MIC (ATCC17978, ATCC 17978, CAMHB, one replicate, MCPs read at 80% growth inhibition): 0.5 µg/mL (≈ 1.3 µM) | MIC (ATCC17978, read-out: MIC 100%, ATCC 17978, Study LGC301026, 100%): 0.25 µg/mL (≈ 0.652 µM) | MIC (ATCC17978, read-out: MIC 100%, ATCC 17978, Study LGC308175, 100%): 0.5 µg/mL (≈ 1.3 µM) | MIC (ATCC19606, ATCC 19606, CAMHB, MCPs read at 80% growth inhibition): 1 µg/mL (≈ 2.61 µM) | MIC (ATCC19606, ATCC 19606, CAMHB, MCPs read at 80% inhibition): 1 µg/mL (≈ 2.61 µM) | MIC (ATCC19606, read-out: MIC 100%, ATCC 19606, Study LGC277937, 100%): 1 µg/mL (≈ 2.61 µM) | MIC (ATCC19606, read-out: MIC 100%, ATCC 19606, Study LGC279800, 100%): 1 µg/mL (≈ 2.61 µM) | MIC (ATCC19606, read-out: MIC 100%, ATCC 19606, Study LGC281440, 100%): 1 µg/mL (≈ 2.61 µM) | MIC (ATCC19606, read-out: MIC 100%, ATCC 19606, Study LGC282160, 100%): 1 µg/mL (≈ 2.61 µM) | MIC (ATCC19606, read-out: MIC 100%, ATCC 19606, Study LGC282623, 100%): 0.5 µg/mL (≈ 1.3 µM) | MIC (ATCC19606, read-out: MIC 100%, ATCC 19606, Study LGC283932, 100%): 1 µg/mL (≈ 2.61 µM) | MIC (ATCC19606, read-out: MIC 100%, ATCC 19606, Study LGC284200, 100%): 1 µg/mL (≈ 2.61 µM) | MIC (ATCC19606, read-out: MIC 100%, ATCC 19606, Study LGC284879, 100%): 4 µg/mL (≈ 10.4 µM) | MIC (ATCC19606, read-out: MIC 100%, ATCC 19606, Study LGC285582, 100%): 4 µg/mL (≈ 10.4 µM) | MIC (ATCC19606, read-out: MIC 100%, ATCC 19606, Study LGC286210, 100%): 2 µg/mL (≈ 5.22 µM) | MIC (ATCC19606, read-out: MIC 100%, ATCC 19606, Study LGC293598, 100%): 2 µg/mL (≈ 5.22 µM) | MIC (ATCC19606, read-out: MIC 100%, ATCC 19606, Study LGC294355, 100%): 2 µg/mL (≈ 5.22 µM) | MIC (ATCC19606, read-out: MIC 100%, ATCC 19606, Study LGC295147, 100%): 2 µg/mL (≈ 5.22 µM) | MIC (ATCC19606, read-out: MIC 100%, ATCC 19606, Study LGC296813, 100%): 2 µg/mL (≈ 5.22 µM) | MIC (ATCC19606, read-out: MIC 100%, ATCC 19606, Study LGC299544, 100%): 4 µg/mL (≈ 10.4 µM) | MIC (ATCC19606, read-out: MIC 100%, ATCC 19606, Study LGC301026, 100%): 4 µg/mL (≈ 10.4 µM) | MIC (ATCC19606, read-out: MIC 100%, ATCC 19606, Study LGC308175, 100%): 1 µg/mL (≈ 2.61 µM) | MIC (ATCC19606, read-out: MIC 100%, ATCC 19606, Study ROC003, 100%): 1 µg/mL (≈ 2.61 µM) | MIC (ATCC19606, read-out: MIC 100%, ATCC 19606, Study ROC004, 100%): 1 µg/mL (≈ 2.61 µM) | MIC (ATCC19606, read-out: MIC 100%, ATCC 19606, Study ROC005, 100%): 1 µg/mL (≈ 2.61 µM) | MIC (ATCC19606, read-out: MIC 100%, ATCC 19606, Study ROC006, 100%): 1 µg/mL (≈ 2.61 µM) | MIC (ATCC19606, read-out: MIC 100%, ATCC 19606, Study ROC007, 100%): 2 µg/mL (≈ 5.22 µM) | MIC (ATCC19606, read-out: MIC 100%, ATCC 19606, Study ROC008, 100%): 1 µg/mL (≈ 2.61 µM) | MIC (ATCC19606, read-out: MIC 100%, ATCC 19606, Study ROC009, 100%): 2 µg/mL (≈ 5.22 µM) | MIC (ATCC19606, read-out: MIC 100%, ATCC 19606, Study ROC010, 100%): 2 µg/mL (≈ 5.22 µM) | MIC (ATCC19606, read-out: MIC 100%, ATCC 19606, Study ROC012, 100%): 0.5 µg/mL (≈ 1.3 µM) | MIC (ATCC19606, read-out: MIC 100%, ATCC 19606, Study ROC013, 100%): 4 µg/mL (≈ 10.4 µM) | MIC (ATCCBAA747, ATCC BAA-747, CAMHB, MCPs read at 80% inhibition): 0.12 µg/mL (≈ 0.313 µM) | MIC (ROB08701, CAMHB, MCPs read at 80% inhibition): 1 µg/mL (≈ 2.61 µM) | MIC (ROB08702, CAMHB, MCPs read at 80% inhibition): > 16 µg/mL | MIC (ROB08703, CAMHB, MCPs read at 80% inhibition): > 16 µg/mL | MIC (ROB08704, CAMHB, MCPs read at 80% inhibition): > 16 µg/mL | MIC (ROB08705, CAMHB, MCPs read at 80% inhibition): > 16 µg/mL | MIC (ROB08706, CAMHB, MCPs read at 80% inhibition): > 16 µg/mL | MIC (ROB08707, CAMHB, MCPs read at 80% inhibition): > 16 µg/mL | MIC (ROB08708, CAMHB, MCPs read at 80% inhibition): 16 µg/mL (≈ 41.7 µM) | MIC (ROB08709, CAMHB, MCPs read at 80% inhibition): > 16 µg/mL | MIC (ROB08710, CAMHB, MCPs read at 80% inhibition): > 16 µg/mL | MIC (read-out: MIC 100%, ROB08701, Study LGC277937, 100%): 1 µg/mL (≈ 2.61 µM) | MIC (read-out: MIC 100%, ROB08701, Study LGC279800, 100%): 1 µg/mL (≈ 2.61 µM) | MIC (read-out: MIC 100%, ROB08701, Study LGC281440, 100%): 1 µg/mL (≈ 2.61 µM) | MIC (read-out: MIC 100%, ROB08701, Study LGC282160, 100%): 1 µg/mL (≈ 2.61 µM) | MIC (read-out: MIC 100%, ROB08701, Study LGC282623, 100%): 1 µg/mL (≈ 2.61 µM) | MIC (read-out: MIC 100%, ROB08701, Study LGC283932, 100%): 1 µg/mL (≈ 2.61 µM) | MIC (read-out: MIC 100%, ROB08701, Study LGC284200, 100%): 32 µg/mL (≈ 83.4 µM) | MIC (read-out: MIC 100%, ROB08701, Study LGC284879, 100%): 1 µg/mL (≈ 2.61 µM) | MIC (read-out: MIC 100%, ROB08701, Study LGC285582, 100%): 1 µg/mL (≈ 2.61 µM) | MIC (read-out: MIC 100%, ROB08701, Study LGC286210, 100%): 1 µg/mL (≈ 2.61 µM) | MIC (read-out: MIC 100%, ROB08701, Study LGC293598, 100%): 2 µg/mL (≈ 5.22 µM) | MIC (read-out: MIC 100%, ROB08701, Study LGC294355, 100%): 1 µg/mL (≈ 2.61 µM) | MIC (read-out: MIC 100%, ROB08701, Study LGC295147, 100%): 1 µg/mL (≈ 2.61 µM) | MIC (read-out: MIC 100%, ROB08701, Study LGC296813, 100%): 2 µg/mL (≈ 5.22 µM) | MIC (read-out: MIC 100%, ROB08701, Study LGC299544, 100%): 1 µg/mL (≈ 2.61 µM) | MIC (read-out: MIC 100%, ROB08701, Study LGC301026, 100%): 1 µg/mL (≈ 2.61 µM) | MIC (read-out: MIC 100%, ROB08701, Study LGC308175, 100%): 1 µg/mL (≈ 2.61 µM) | MIC (read-out: MIC 100%, ROB08701, Study ROC003, 100%): 1 µg/mL (≈ 2.61 µM) | MIC (read-out: MIC 100%, ROB08701, Study ROC004, 100%): 1 µg/mL (≈ 2.61 µM) | MIC (read-out: MIC 100%, ROB08701, Study ROC005, 100%): 1 µg/mL (≈ 2.61 µM) | MIC (read-out: MIC 100%, ROB08701, Study ROC006, 100%): 1 µg/mL (≈ 2.61 µM) | MIC (read-out: MIC 100%, ROB08701, Study ROC007, 100%): 1 µg/mL (≈ 2.61 µM) | MIC (read-out: MIC 100%, ROB08701, Study ROC008, 100%): 1 µg/mL (≈ 2.61 µM) | MIC (read-out: MIC 100%, ROB08701, Study ROC009, 100%): 1 µg/mL (≈ 2.61 µM) | MIC (read-out: MIC 100%, ROB08701, Study ROC010, 100%): 1 µg/mL (≈ 2.61 µM) | MIC (read-out: MIC 100%, ROB08701, Study ROC012, 100%): 0.5 µg/mL (≈ 1.3 µM) | MIC (read-out: MIC 100%, ROB08701, Study ROC013, 100%): 1 µg/mL (≈ 2.61 µM) | MIC (read-out: MIC 100%, ROB08702, Study LGC277937, 100%): 32 µg/mL (≈ 83.4 µM) | MIC (read-out: MIC 100%, ROB08702, Study LGC279800, 100%): 32 µg/mL (≈ 83.4 µM) | MIC (read-out: MIC 100%, ROB08702, Study LGC281440, 100%): 16 µg/mL (≈ 41.7 µM) | MIC (read-out: MIC 100%, ROB08702, Study LGC282160, 100%): 64 µg/mL (≈ 167 µM) | MIC (read-out: MIC 100%, ROB08702, Study LGC282623, 100%): 32 µg/mL (≈ 83.4 µM) | MIC (read-out: MIC 100%, ROB08702, Study LGC283932, 100%): 32 µg/mL (≈ 83.4 µM) | MIC (read-out: MIC 100%, ROB08702, Study LGC284200, 100%): 32 µg/mL (≈ 83.4 µM)
